Values after ≈ are worked out from the molar mass of the structure shown.

One may read the solubility (kinetic) as solubility judged after dilution from a stock solution rather than from solid.

The conditions of the data set: buffer; pH 7.4; 200.0 µM.
On to `O=C(NCc1cccnc1)C12CC3CC(CC(C3)C1)C2`, for which the kinetic solubility came to 38.7 µg/mL (≈ 143 µM). Compound `Cc1ccc(C)c(NC2=C(Cl)C(=O)OC2OC(C)C)c1` (centres undefined) yielded a kinetic solubility of 10.8 µg/mL (≈ 36.5 µM). `Cn1c(SCc2ccccc2Cl)nc2c1c(=O)[nH]c(=O)n2C` had a solubility (kinetic) of 0.4 µg/mL (≈ 1.19 µM). `O=c1[nH]c(=S)n(C2CC2)c(O)c1C=NCc1cccnc1`: the kinetic solubility is > 45.4 µg/mL. Take `Cc1ccc(Cn2cc(CCC(=O)O)c3ccccc32)cc1`: the solubility (kinetic) was > 44 µg/mL. `CCOC(=O)N1CCN(C(=O)/C=C/c2ccc(OC)c(OC)c2)CC1` came in with a solubility (kinetic) of 51.5 µg/mL (≈ 148 µM). Take `COc1ccc(OC)c(S(=O)(=O)Nc2cc(C)on2)c1`: the kinetic solubility is > 44.7 µg/mL. Under `Cc1nnc(Cn2cnc3c2c(=O)n(C)c(=O)n3C)o1` stands > 41.4 µg/mL; under `CN(C)/C=C/C(=O)c1cc(N2CCOCC2)ccc1[N+](=O)[O-]`, > 45.8 µg/mL. Under `O=c1[nH]c(-c2ccccc2)c(-c2ccccc2)o1` stands 14.8 µg/mL (≈ 62.4 µM); under `COc1cc(C)c(S(=O)(=O)N2CCOCC2)c(C)c1C`, > 44.9 µg/mL; under `COc1ccccc1CNC(=O)COC(=O)c1ccco1`, > 43.4 µg/mL. Under `Cc1ccc2nc(C)c3c(c2c1)SCC3` stands 11.3 µg/mL (≈ 52.5 µM); under `Cc1ccc2cccc(OC(=O)/C=C\c3ccccc3)c2n1`, 16.8 µg/mL (≈ 58.1 µM). As for `COc1ccc(CC(=O)NCc2ccc(F)cc2)cc1S(=O)(=O)N1CCOCC1`, the kinetic solubility was > 63.4 µg/mL. Under `COc1ccc(S(=O)(=O)N2c3ccc(F)cc3CCC2C)cc1` (centres undefined) stands 3.2 µg/mL (≈ 9.54 µM); under `Oc1cc2c(cc1CN1CCN(c3ccccc3)CC1)OCO2`, 17.6 µg/mL (≈ 56.3 µM); under `CN(C1CCCCC1)S(=O)(=O)c1ccc2[nH]c(=O)oc2c1`, > 46.6 µg/mL. Under `COc1cccc(OCCNC(=O)Nc2cc(F)c(F)cc2Cl)c1` stands < 0.4 µg/mL.

`Cc1cc(C(=O)NC(Cc2c[nH]c3ccccc23)C(=O)O)c(C)o1` (centres undefined) came in with a solubility (kinetic) of 41.6 µg/mL (≈ 127 µM). Compound `O=C(OCc1cc(=O)n2ccsc2n1)c1ccccc1O` displayed a kinetic solubility of 22.5 µg/mL (≈ 74.4 µM). Regarding `Cc1ccc(C(=O)Nc2ccc(Nc3ccccc3)cc2)cc1C`, the kinetic solubility is 2.3 µg/mL (≈ 7.27 µM). As to `CCOc1ccc(N2CC(C(=O)NC3CCCC3)CC2=O)cc1` (centres undefined), the kinetic solubility is > 47.5 µg/mL.

As to `Cn1cc(C(=O)OCC(=O)N2CCCCC2)c2ccccc21`, the kinetic solubility is > 45.1 µg/mL.

Turning to `CCOc1cc(C(=O)NCc2ccco2)cc(OCC)c1OCC`, the kinetic solubility is 49.7 µg/mL (≈ 149 µM). In the case of `Cc1cccc(NC(=O)C2C3CCCCC32)c1` (centres undefined), the solubility (kinetic) is 3 µg/mL (≈ 13.1 µM).

`O=C(Nc1ccc2c(c1)C(=O)OC2)c1ccc(F)cc1F` returned a solubility (kinetic) of 2.3 µg/mL (≈ 7.95 µM). Under `CC(=O)NC(CC(=O)Nc1nc(C)cs1)c1ccccc1` (centres undefined) stands > 45.5 µg/mL. On to `CC1CC(C)CN(C(=O)c2cccc(S(=O)(=O)NCc3ccccc3)c2)C1` (centres undefined), for which the solubility (kinetic) was > 58 µg/mL. `COc1cc2nc(CN3CCN(S(=O)(=O)c4cc(C)ccc4C)CC3)[nH]c(=O)c2cc1OC`: the solubility (kinetic) came out at 9.7 µg/mL (≈ 20.5 µM). On to `O=C(NCCc1ccccn1)c1cncc(Br)c1`, for which the solubility (kinetic) was > 45.9 µg/mL. `CCc1ccc2[nH]c(C(=O)N(C)c3ccc(F)cc3F)cc2c1` displayed a kinetic solubility of 1.7 µg/mL (≈ 5.41 µM). Turning to `CCCN1CCN(CCNC(=O)Nc2cc(C)ccc2C)CC1`, the solubility (kinetic) was > 47.8 µg/mL. Under `Cc1cc(F)ccc1S(=O)(=O)NCC1CC2CCC1C2` (centres undefined) stands 4.2 µg/mL (≈ 14.1 µM). The compound `COc1ccc(Nc2nc3nonc3nc2N2CCCCC2)cc1` came in with a solubility (kinetic) of 5.3 µg/mL (≈ 16.2 µM).

As for `Cc1ccc2c(c1)CCCN2C(=O)c1cc(C)on1`, the kinetic solubility was > 38.4 µg/mL. Under `CNC(=S)Nc1ccc(OCc2ccccc2)cc1` stands 29.5 µg/mL (≈ 108 µM); under `O=C(Nc1ccncc1)OCc1ccccc1`, > 34.2 µg/mL. For `Cc1ccccc1C(=O)OCC(=O)N(C)c1ccccc1`, the kinetic solubility was > 42.5 µg/mL.

`NC(=O)COc1cc2oc(=O)c3c(c2cc1Cl)CCCC3` returned a kinetic solubility of 7.1 µg/mL (≈ 23.1 µM). Under `CCN(CC(=O)NCc1ccc(Cl)cc1)C(=O)c1cc(S(=O)(=O)N2CCOCC2)ccc1C` stands > 74.1 µg/mL; under `O=C(CN1CCOCC1)N1c2ccccc2Sc2ccccc21`, > 49 µg/mL. Under `O=C(CCC(=O)N1CCc2ccccc2C1)NCCc1ccc(Cl)cc1` stands > 55.6 µg/mL. With `O=C(CN1C(=O)NC2(CCCCC2)C1=O)N1CCc2ccccc2C1`, the solubility (kinetic) was > 51.2 µg/mL. Under `CCOC(=O)c1sc(Nc2ccc(OCC)cc2)nc1C` stands 0.9 µg/mL (≈ 2.94 µM). For the compound `CC1CC(C)CN(C(=O)CCNC(=O)c2ccccc2Cl)C1` (centres undefined), the kinetic solubility amounted to 47.7 µg/mL (≈ 148 µM). For `CCCCCOc1ccc(C(=O)CCC(=O)N2CCCC2)cc1`, the solubility (kinetic) is > 47.6 µg/mL. Consider `Nc1cccc(Oc2cnccn2)c1`, for which the kinetic solubility is > 28.1 µg/mL. Under `C(/C=C/c1ccccn1)=C\c1ccccc1` stands 0.7 µg/mL (≈ 3.38 µM); under `CN(C)c1nc(N)c([N+](=O)[O-])c(NCC2CCCO2)n1` (centres undefined), 40.5 µg/mL (≈ 143 µM); under `CS(=O)(=O)Nc1cccc(-c2cnc3ccccc3n2)c1`, > 44.9 µg/mL. In the case of `COc1ccc(CC(=O)N2CCN(c3ccccc3)CC2)cc1OC`, the kinetic solubility was found to be 49.9 µg/mL (≈ 147 µM). Under `N#CCNC1CC(=O)N(c2ccccc2)C1=O` (centres undefined) stands > 34.4 µg/mL; under `Cc1nc(SCc2c(Cl)cccc2Cl)nc(OC(=O)N(C)C)c1C`, 2.2 µg/mL (≈ 5.69 µM); under `O=C(NCCCN1CCOCC1)c1ccc(Cl)cc1Cl`, > 47.6 µg/mL. The compound `CC(NC(=O)COC(=O)c1ccc(S(=O)(=O)N2CCOCC2)cc1)c1ccccc1` (centres undefined) displayed a solubility (kinetic) of 13.2 µg/mL (≈ 30.5 µM). Under `COC(=O)c1ccc2nc(NC(=O)C3CC3)sc2c1` stands 4.1 µg/mL (≈ 14.8 µM). Under `COc1ccc(OC)c(/C=C2\NC(=O)NC2=O)c1` stands 9.5 µg/mL (≈ 38.3 µM); under `COc1ccc(CC(=O)Nc2c(C(N)=O)oc3ccccc23)cc1`, 1.6 µg/mL (≈ 4.93 µM).

With `O=C(Nc1ccc(S(=O)(=O)Nc2ncccn2)cc1)C12CC3CC(CC(Cl)(C3)C1)C2`, the kinetic solubility was > 67 µg/mL. `O=C(CN1CCCc2ccccc21)Nc1ccc(F)cc1[N+](=O)[O-]`: the kinetic solubility is < 0.2 µg/mL.

For the compound `CS(=O)(=O)N1CCC(C(=O)Nc2cccc(F)c2)CC1`, the kinetic solubility is > 45.1 µg/mL.

In turn, `Cc1ccc(NC(=O)N2C3CCCC2CC(NC(=O)C2CC2)C3)cc1` (centres undefined) displayed a solubility (kinetic) of 9.4 µg/mL (≈ 27.5 µM). With `C/C(=N\O)c1ccc(Cl)c(Cl)c1`, the solubility (kinetic) was determined as 11.9 µg/mL (≈ 58.3 µM). For the compound `CN(CC(O)CN1CCOCC1)S(=O)(=O)[O-].[Na+]` (centres undefined), the solubility (kinetic) is > 41.4 µg/mL.

For `Cc1ccc(NC(=O)CCC(=O)c2cccs2)nc1`, the solubility (kinetic) came to 34.6 µg/mL (≈ 126 µM). Under `CC1(C)CC(NC(=O)c2ccc(Br)o2)CC(C)(C)N1` stands > 49.4 µg/mL; under `Cl.OCCCNCc1ccc(-c2ccccc2)cc1`, > 41.7 µg/mL; under `COc1ccc(-c2csc(NC(=O)c3ccccc3F)n2)cc1`, 0.5 µg/mL (≈ 1.52 µM). Under `O=C(NC1CCCCCC1)c1ccc(Br)o1` stands 27.7 µg/mL (≈ 96.8 µM). Under `C=CCn1c(SCC(=O)N2CCOCC2)nc2sc(CC)cc2c1=O` stands > 56.9 µg/mL. Consider `Cc1cc(C(=O)Cn2c(CO)nc3ccccc32)c(C)n1C`, for which the solubility (kinetic) is > 44.6 µg/mL. Turning to `C(CNC1C2CC3CC(C2)CC1C3)CN1CCOCC1.Cl` (centres undefined), the solubility (kinetic) was > 52.7 µg/mL. Under `CCC(=O)c1ccc(OCC(=O)N2CCN(CC(=O)Nc3ccc(C)cc3)CC2)cc1` stands > 63.5 µg/mL; under `Fc1ccccc1CN1CCN(c2ncccn2)CC1`, 30.1 µg/mL (≈ 111 µM); under `CCOC(=O)c1cccc(NC(=O)Nc2ccc3c(c2)C(=O)OC3)c1`, < 0.4 µg/mL. Compound `Cc1ccc(Nc2nc(N)c3ccccc3n2)cc1Cl.Cl` yielded a solubility (kinetic) of 22.1 µg/mL.

For the compound `O=C1CCCC(O)=C1N=Nc1ccc(C(=O)O)cc1`, the solubility (kinetic) was > 39 µg/mL.

As to `COc1ccccc1NC(=O)CSc1nncs1`, the solubility (kinetic) was > 42.2 µg/mL.

The compound `CN1C(=O)c2ccccc2C(O)c2ccccc21` (centres undefined) returned a kinetic solubility of 31.8 µg/mL (≈ 133 µM).

`COc1cccc(Oc2c(C)oc3c(CN4CCCC4)c(O)ccc3c2=O)c1`: the solubility (kinetic) was 40.6 µg/mL (≈ 106 µM).

As to `CC(=O)C1=C(C)OC(N)=C(C#N)C1c1cccc2ccccc12` (centres undefined), the kinetic solubility worked out at 37.6 µg/mL (≈ 124 µM). Consider `CCN(C(=O)CSc1ncccn1)c1cccc2ccccc12`, for which the kinetic solubility is > 48.5 µg/mL. The compound `c1ccc(-c2nc(NCc3cccs3)c3ccccc3n2)cc1` showed a solubility (kinetic) of 0.7 µg/mL (≈ 2.21 µM). In turn, `CC(=O)c1ccc(OCCCC(=O)Nc2cccc(S(=O)(=O)N3CCCCCC3)c2)cc1` came in with a kinetic solubility of 10.4 µg/mL (≈ 22.7 µM). Under `COc1cc(OC)c(C(=O)Nc2ccc3ccccc3c2)cc1OC` stands < 0.7 µg/mL. Take `CCOC(=O)C1CCCN(S(=O)(=O)c2ccc(NC(C)=O)cc2)C1` (centres undefined): the kinetic solubility was > 53.2 µg/mL.

`O=c1c(Cc2ccc(F)cc2)c(O)ccn1Cc1ccco1`: the kinetic solubility came to 33 µg/mL (≈ 110 µM). `Oc1ccc(N2Cc3ccccc3C2)cc1`: the solubility (kinetic) was 9.9 µg/mL (≈ 46.9 µM).

Turning to `Cn1c(/C=N/O)nc2ccccc21`, the solubility (kinetic) is > 26.3 µg/mL. Under `COc1cccc(NC(=O)C(=O)NCCCN2CCCC2=O)c1` stands > 47.9 µg/mL; under `Cc1cc(C(=O)Nc2ccc(F)cc2)c2ccccc2n1`, < 0.3 µg/mL; under `O=C(Nc1ccc(Oc2ccsc2C(=O)O)cc1)c1ccccc1`, > 50.9 µg/mL. Turning to `COC(=O)NC(C)N1C(=O)C2C3C=CC(C3)C2C1=O` (centres undefined), the solubility (kinetic) was > 39.6 µg/mL. Under `COc1ccc2oc(=N)c(C(=O)Nc3ccc(Cl)cc3)cc2c1` stands < 0.4 µg/mL; under `Cl.O=C(CCCN1CCOC(c2ccccc2)C1)c1ccc(F)cc1` (centres undefined), 50.3 µg/mL; under `Fc1ccccc1CN1CCN(c2ccc(Cl)cc2)CC1`, 1 µg/mL (≈ 3.28 µM). On to `O=C(COC(=O)C1CC1)NCc1ccccc1`, for which the solubility (kinetic) was > 35 µg/mL.

Regarding `CCOc1ccc(/C=C/C(=O)N2CCOCC2)cc1OC`, the solubility (kinetic) is > 43.7 µg/mL. Under `O=c1c2sc(-c3ccccc3)cc2nc2n1CCCCC2` stands 29.5 µg/mL (≈ 99.5 µM); under `CSc1ccccc1NC(=O)CN(C)C(=O)COc1ncnc2ccccc12`, 45.1 µg/mL (≈ 114 µM); under `CN(C(=O)CSc1nnc(-c2ccc(Cl)cc2)n1C)C1CCS(=O)(=O)C1` (centres undefined), > 62.2 µg/mL.

`Cc1ccc2nc(Nc3ncc4c(n3)CC(C)(C)CC4=O)nc(C)c2c1` yielded a solubility (kinetic) of 10.5 µg/mL (≈ 30.2 µM). Under `O=C(NCCN1CCN(c2ccc([N+](=O)[O-])cc2)CC1)NCc1ccccc1` stands > 57.5 µg/mL.

The values are drawn from PubChem BioAssay AID1996.
